In patent US20060167115A1, “Compositions for the preservation of timber” (priority 2003, published 2006):

Assays:
Poria placenta = test: Biological screening test (modified EN 113) of TBBA homologues; format: cell-based; conditions: 8 weeks exposure; for Protective Effect (retention of the active ingredient in the wood): waterborne
Procedure: (§1) The following fungi were employed: Coniophora puteana (Brown rot fungus) and Poria placenta (Brown rot fungus). The following preservatives were tested: TBBF (waterborne), TBBE (waterborne), TBBZ (waterborne) and TBBS (waterborne).
(§2) Five concentrations of each preservative were tested: 3.0%, 2.0%, 1.0%, 0.1% and 0.05% (w/w). All wood blocks were of Scots pine sapwood (Pinus sylvestris) with a volume of 1 cm^3 (10 mm×10 mm×10 mm). Five replicates were used for each test specimen type and six virulence control specimens for each fungus and for each preservative were used as follows: • Treated test specimens: 2 (fungi)×5 (preservative concentrations)×1 (preservative)×5 (replicates)=50 test blocks • Untreated test specimens (for exposure alongside […] test blocks): 2 (fungi)×5 (preservative concentrations)×1 (preservative)×5 (replicates)=50 test blocks • Treated check test specimens: 1 (preservative)×5 (concentrations)×5 (replicates)=25 blocks
(§3) For all actives/preservatives in the test: • Virulence control specimens: 2 (fungi)×6 (replicates)=12 test blocks
(§4) After block treatments were completed, all the blocks were sterilized using ionizing radiation according to the conditions set out in European standard EN 113. The incubation period for the test (length of block exposure to the chosen basidiomycete fungi) was 8 weeks.
(§5) Weight changes for particular waterlogged specimens, when these were clearly unrepresentative of a group, were not included in the mean figures presented.

Coniophora puteana = test: as above; format: cell-based; conditions: 8 weeks exposure; for Protective Effect (retention of the active ingredient in the wood): waterborne
Procedure: as §1, §2, §3, §4, §5

[1] = TBBE waterborne 0.05% w/w, retention 0.4 kg/m^3
[2] = TBBF waterborne 0.05% w/w, retention 0.4 kg/m^3
[3] = TBBS waterborne 0.05% w/w, retention 0.4 kg/m^3
[4] = TBBS waterborne 0.1% w/w, retention 0.8 kg/m^3
[5] = TBBZ waterborne 0.05% w/w, retention 0.4 kg/m^3, some waterlogging

SMILES: CC(c1cc(Br)c(O)c(Br)c1)c1cc(Br)c(O)c(Br)c1 [TBBE, 4,4′-Ethylidenebis(2,6-dibromophenol)]
- Corrected mean loss in mass (%) (Poria placenta; [1]): No Decay (0.89)
- Corrected mean loss in mass (%) (Poria placenta; TBBE waterborne 0.1% w/w, retention 0.8 kg/m^3): 28.67 (14.13) %
- Corrected mean loss in mass (%) (Poria placenta; TBBE waterborne 1.0% w/w, retention 8.3 kg/m^3, some waterlogging): No Decay (W)
- Corrected mean loss in mass (%) (Poria placenta; TBBE waterborne 2.0% w/w, retention 14.4 kg/m^3, some waterlogging): No Decay (W)
- Corrected mean loss in mass (%) (Poria placenta; TBBE waterborne 3.0% w/w, retention 24.6 kg/m^3): No Decay
- Protective Effect (retention of the active ingredient in the wood) (Poria placenta): 0.8-8.3 kg/m^3
- Corrected mean loss in mass (%) (Coniophora puteana; [1]): 22.96 (4.81) %
- Corrected mean loss in mass (%) (Coniophora puteana; TBBE waterborne 0.1% w/w, retention 0.7 kg/m^3): 26.57 (2.99) %
- Corrected mean loss in mass (%) (Coniophora puteana; TBBE waterborne 1.0% w/w, retention 7.9 kg/m^3): No Decay
- Corrected mean loss in mass (%) (Coniophora puteana; TBBE waterborne 2.0% w/w, retention 14.7 kg/m^3): No Decay
- Corrected mean loss in mass (%) (Coniophora puteana; TBBE waterborne 3.0% w/w, retention 24.7 kg/m^3): No Decay
- Protective Effect (retention of the active ingredient in the wood) (Coniophora puteana): 0.7-7.9 kg/m^3

SMILES: Oc1c(Br)cc(Cc2cc(Br)c(O)c(Br)c2)cc1Br [TBBF, Bis(4-hydroxy-3,5-dibromophenyl)methane]
- Corrected mean loss in mass (%) (Poria placenta; [2]): 24.20 (9.63) %
- Corrected mean loss in mass (%) (Poria placenta; TBBF waterborne 0.1% w/w, retention 0.8 kg/m^3): 20.90 (0.23) %
- Corrected mean loss in mass (%) (Poria placenta; TBBF waterborne 1.0% w/w, retention 7.7 kg/m^3): No Decay
- Corrected mean loss in mass (%) (Poria placenta; TBBF waterborne 2.0% w/w, retention 15.7 kg/m^3): No Decay
- Corrected mean loss in mass (%) (Poria placenta; TBBF waterborne 3.0% w/w, retention 20.8 kg/m^3): No Decay
- Protective Effect (retention of the active ingredient in the wood) (Poria placenta): 0.8-7.7 kg/m^3
- Corrected mean loss in mass (%) (Coniophora puteana; [2]): 26.87 (7.38) %
- Corrected mean loss in mass (%) (Coniophora puteana; TBBF waterborne 0.1% w/w, retention 0.8 kg/m^3, some waterlogging): 24.49 (2.12) (W) %
- Corrected mean loss in mass (%) (Coniophora puteana; TBBF waterborne 1.0% w/w, retention 7.9 kg/m^3): No Decay
- Corrected mean loss in mass (%) (Coniophora puteana; TBBF waterborne 2.0% w/w, retention 15.1 kg/m^3): No Decay
- Corrected mean loss in mass (%) (Coniophora puteana; TBBF waterborne 3.0% w/w, retention 23.1 kg/m^3): No Decay
- Protective Effect (retention of the active ingredient in the wood) (Coniophora puteana): 0.8-7.9 kg/m^3

SMILES: O=S(=O)(c1cc(Br)c(O)c(Br)c1)c1cc(Br)c(O)c(Br)c1 [TBBS, 4,4′-Sulfonyldi(2,6-dibromophenol)]
- Corrected mean loss in mass (%) (Poria placenta; [3]): No Decay
- Corrected mean loss in mass (%) (Poria placenta; [4]): No Decay
- Corrected mean loss in mass (%) (Poria placenta; TBBS waterborne 1.0% w/w, retention 7.9 kg/m^3): No Decay
- Corrected mean loss in mass (%) (Poria placenta; TBBS waterborne 2.0% w/w, retention 15.3 kg/m^3): No Decay
- Corrected mean loss in mass (%) (Poria placenta; TBBS waterborne 3.0% w/w, retention 25.0 kg/m^3): No Decay
- Protective Effect (retention of the active ingredient in the wood) (Poria placenta): 0.8-7.9 kg/m^3
- Corrected mean loss in mass (%) (Coniophora puteana; [3]): 35.02 (6.61) %
- Corrected mean loss in mass (%) (Coniophora puteana; [4]): 35.49 (4.92) %
- Corrected mean loss in mass (%) (Coniophora puteana; TBBS waterborne 1.0% w/w, retention 7.6 kg/m^3): No Decay
- Corrected mean loss in mass (%) (Coniophora puteana; TBBS waterborne 2.0% w/w, retention 16.1 kg/m^3): No Decay
- Corrected mean loss in mass (%) (Coniophora puteana; TBBS waterborne 3.0% w/w, retention 20.2 kg/m^3): No Decay
- Protective Effect (retention of the active ingredient in the wood) (Coniophora puteana): 0.8-7.6 kg/m^3

SMILES: Oc1c(Br)cc(C2(c3cc(Br)c(O)c(Br)c3)CCCCC2)cc1Br [TBBZ, 4,4′-Cyclohexylidenebis(2,6-dibromophenol)]
- Corrected mean loss in mass (%) (Poria placenta; [5]): 0.94 (3.19) (W) %
- Corrected mean loss in mass (%) (Poria placenta; TBBZ waterborne 0.1% w/w, retention 0.8 kg/m^3): 33.47 (15.74) %
- Corrected mean loss in mass (%) (Poria placenta; TBBZ waterborne 1.0% w/w, retention 5.9 kg/m^3): No Decay
- Corrected mean loss in mass (%) (Poria placenta; TBBZ waterborne 2.0% w/w, retention 11.6 kg/m^3): No Decay
- Corrected mean loss in mass (%) (Poria placenta; TBBZ waterborne 3.0% w/w, retention 18.6 kg/m^3): No Decay
- Protective Effect (retention of the active ingredient in the wood) (Poria placenta): 0.8-5.9 kg/m^3
- Corrected mean loss in mass (%) (Coniophora puteana; [5]): 33.57 (7.59) (W) %
- Corrected mean loss in mass (%) (Coniophora puteana; TBBZ waterborne 1.0% w/w, retention 6.8 kg/m^3): 14.30 (—) %
- Corrected mean loss in mass (%) (Coniophora puteana; TBBZ waterborne 2.0% w/w, retention 11.8 kg/m^3): No Decay
- Corrected mean loss in mass (%) (Coniophora puteana; TBBZ waterborne 3.0% w/w, retention 17.6 kg/m^3): No Decay
- Protective Effect (retention of the active ingredient in the wood) (Coniophora puteana): 0.7-6.8 kg/m^3
